Assay results: patent US20180071280A1, “MODULATORS OF CELL DEATH PROCESSES” (URIFER LTD., priority 2015, published 2018)
Structures can show the parent of a compound that is named as a salt.

Experiments:
CC cells = assay: Apoptotic markers in treated CC cells (WB, ICC); assay type: cell-based, human
Experimental: WB analyses were carried out as previously described before. In brief, cells were lysed in RIPA buffer mixed with protease inhibitors and separated on SDS-PAGE gel, transferred to PVDF membrane treated with 5% skim milk to exclude non-specific background and incubated with a primary antibody over-night. The membrane was incubated for 1 h with a secondary antibody conjugated to Horseradish Peroxidase (HRP). The protein-antibody complex was visualized using the SuperSignal West Pico Chemiluminescent Substrate (Thermo scientific, USA).
Cells were fixed with 4% paraformaldehyde (30 min) and incubated with Permeabilization Solution containing 0.1% Triton X-100 (Sigma-Aldrich, Israel) in PBS at room temperature for 1 h. Nonspecific binding was blocked with PBS containing 10% fetal bovine serum for 1 h at room temperature. Cells were incubated with specific antibodies diluted 1:100 overnight at 4° C. […] Bound primary antibodies were detected by Alexa Fluor® 488 goat anti-mouse IgG antibody or Alexa Fluor® 594 goat anti-rabbit IgG antibody (Molecular Probes, Invitrogen, U.K.). […] Nonspecific staining, as determined by binding to the secondary antibody only, was negligible. The immunostained slides were examined under the fluorescence microscope AxioimagerZ1 (Zeiss, Germany) or confocal fluorescence microscope (Olympus-FV1000).

[1] = tested on: malignant cells (CC and MDA cells); assay: Cellular ATP level (HPLC) in malignant cells; assay type: cell-based, human; details: CC cells, high glucose
Experimental: Quantification of intracellular ATP was carried out using HPLC as previously described.
Cells were suspended in 400 μl cold 0.4M perchloric acid solution, incubated on ice for 15 min, centrifuged at 12,000×g, neutralized with 4M K2CO3 to pH 7.5, incubated for 15 min on ice and concentrated (10,000×g). Chromatographic analyses were performed using Hitachi Elite LaChrom system at 30° C. applying supernatants to SUPELCOSIL™ LC-18-S HPLC Column (5 μm particle size, L×I.D. 25 cm×2.1 mm), flow rate 0.2 mL/min under isocratic elution conditions (50 mM potassium phosphate, 100 mM triethylamine, pH 6.5 (adjusted with phosphoric acid)):Acetonitrile (98.5:1.5)). Each analysis cycle was set to 30 min, chromatographic flow was monitored at 260 nm and integrated using EZChrom Elite Software.

SW620 cells = assay: TUNEL assay in SW620 cells; assay type: cell-based, human; details: 12 h
Experimental: Samples of 1×10^6 cells were inoculated into a 6 well plate containing a cover slip, and fixed for 30 min with 4% paraformaldehyde following adhesion. The cells were then subjected to TUNEL analysis according to manufacturer's instructions (Roche, USA).

Hfb cells = assay: Glycolysis rate (secreted lactate) in Hfb cells; assay type: cell-based, human; details: low or high glucose
Experimental: Cells were grown in MEM containing 1 gr/lit glucose or in DMEM with 4.5 gr/lit glucose. Secreted lactate levels were determined using Lactate Colorimetric Assay Kit II according to the manufacturer's protocol (Biovision, USA).

[2] = biological target: CAMK1 (Calcium/calmodulin-dependent protein kinase type 1) (Homo sapiens, UniProt Q14012); assay: Kinase panel assay, CAMK1; assay type: biochemical; details: above threshold
CAMK1 (Calcium/calmodulin-dependent protein kinase type 1), sequence (Q14012 whole entry): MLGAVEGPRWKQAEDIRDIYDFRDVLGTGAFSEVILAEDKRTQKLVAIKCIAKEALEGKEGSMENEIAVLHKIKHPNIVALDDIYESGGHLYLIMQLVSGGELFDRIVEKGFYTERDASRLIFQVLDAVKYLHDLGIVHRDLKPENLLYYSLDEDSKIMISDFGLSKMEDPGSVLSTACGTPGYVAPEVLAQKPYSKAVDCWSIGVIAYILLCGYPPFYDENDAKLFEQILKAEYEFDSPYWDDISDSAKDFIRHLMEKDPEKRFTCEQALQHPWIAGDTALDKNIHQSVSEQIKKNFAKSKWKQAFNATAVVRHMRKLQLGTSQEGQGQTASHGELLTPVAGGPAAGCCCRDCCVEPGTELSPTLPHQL
Experimental: Kinase panel assays were performed using the FRET-based Z′-LYTE, Lantha Screen and Adapta enzymatic kinase assay systems (Life Technologies, Carlsbad, Calif.), which were carried out using the SelectScreen Kinase Profiling Service (Life Technologies). The standard reaction contained 2 μM peptide substrate, ATP at the optimal assay concentration, 50 mM HEPES (pH 7.5), 0.01% Brij-35, 10 mM MgCl2, 1 mM EGTA, and the tested kinase. Each kinase was checked for its activity in duplicate data points (n=2) and was assayed following the detailed procedures outlined in the SelectScreen service. Percent inhibition or ATP displacement (For Lantha screen) represent a ratio of phosphorylated/ATP bound product formed in the presence of the compound compared with phosphorylated/ATP bound product formed in reactions containing 1% DMSO.
Kinome technique was used for monitoring phosphorylation events and phosphorylation targets of 0260-Fer interaction, using peptide arrays for human targets and phosphorylation-specific antibodies. Construction of peptide arrays relied on information from phosphorylation databases. The following proteins were determined as significant above the threshold of 40% kinase activity inhibition or ATP displacement to the Kinase domain site.

Fer = Fer (Homo sapiens, UniProt P16591); assay: Immunoprecipitation of Fer from 0260 treated SW620 CC cells; assay type: binding; design: endogenous in cells; host or cells: SW620 colon carcinoma cells
Fer, sequence (P16591 whole entry): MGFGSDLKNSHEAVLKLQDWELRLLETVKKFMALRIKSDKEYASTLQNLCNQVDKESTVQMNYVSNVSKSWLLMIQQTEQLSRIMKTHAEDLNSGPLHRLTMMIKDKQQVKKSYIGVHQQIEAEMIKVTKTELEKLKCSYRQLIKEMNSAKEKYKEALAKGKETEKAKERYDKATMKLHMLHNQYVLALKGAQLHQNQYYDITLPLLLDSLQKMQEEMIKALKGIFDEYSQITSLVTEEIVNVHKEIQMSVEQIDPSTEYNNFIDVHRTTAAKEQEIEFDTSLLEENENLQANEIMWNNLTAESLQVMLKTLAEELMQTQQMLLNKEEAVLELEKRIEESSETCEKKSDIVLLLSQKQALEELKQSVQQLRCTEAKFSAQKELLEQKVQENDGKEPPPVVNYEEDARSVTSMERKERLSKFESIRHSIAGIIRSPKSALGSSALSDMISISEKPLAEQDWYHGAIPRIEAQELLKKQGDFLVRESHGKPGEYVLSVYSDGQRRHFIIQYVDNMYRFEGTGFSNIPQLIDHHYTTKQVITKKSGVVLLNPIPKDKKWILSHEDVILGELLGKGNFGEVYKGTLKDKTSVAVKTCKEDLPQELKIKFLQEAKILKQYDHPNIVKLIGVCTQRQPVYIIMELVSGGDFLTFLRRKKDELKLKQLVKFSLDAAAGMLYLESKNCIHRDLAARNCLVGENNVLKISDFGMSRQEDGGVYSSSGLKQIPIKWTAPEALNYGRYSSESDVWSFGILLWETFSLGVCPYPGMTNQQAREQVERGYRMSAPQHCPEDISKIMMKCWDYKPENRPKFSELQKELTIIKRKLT
Experimental: Protein lysates (1 mg) were prepared from tissues of adult mice according to previously described protocol, including incubation with Protein A Sepharose (GE Healthcare) to avoid nonspecific binding. Protein lysates were incubated with specific antibodies diluted 1:100 overnight at 4° C. Antigen-antibody complexes were precipitated with Protein A Sepharose, washed twice in PBS and eluted in Sample Buffer (2% SDS, 1% DTT 0.02% bromophenol blue 10% glycerol, 12.5 mM EDTA, 50 mM Tris-HCl pH 6.8) at room temperature for 10 min and at 100° C. for 8 min. Eluates were separated on SDS-PAGE and visualized by WB using specific antibodies.
To examine the effect of 0260 micellar formulation on Fer in malignant cells, the kinase was immuno-precipitated from untreated and from 0260 treated SW620 CC cells.

## CC(C)c1ccc(-c2cn3nc(N4CCC(CN5CCN(C)CC5)CC4)sc3n2)cc1 [compound 0260, tartarate salt of 6-(4-isopropyl-phenyl)-2-{4-[(4-methyl-piperazin-1-yl)methyl]piperidin-1-yl}-imidazo [2,1-b][1,3,4]thiadiazole]
CC cells
  apoptotic markers (cleaved caspase 3, cleaved PARP-1, AIF translocation): not observed
[1]
  effect on ATP levels under high glucose medium: reducing its effect on ATP levels
SW620 cells
  DNA integrity (TUNEL): did not reveal any effect
Hfb cells
  elevation in the glycolytic rate: not observed
[2]
  kinase activity inhibition or ATP displacement: > 40%
Fer
  IP of Fer by antibodies toward the N-terminal tail: did not disable the IP of Fer
